Source: patent publication US20140057915A1, “KINASE INHIBITORS” (TOPIVERT PHARMA LIMITED, priority 2012, published 2014)
pIC50: −log10 of the molar value. Where two headings read alike, the source gives them in different places.

Columns and labels:
GSK3α = GSK3α (Homo sapiens, UniProt P49840); experiment: Enzyme binding assay (Kinomescan); details: read-out: % Inhibition of kinase binding at 500 nM, GSK3α
Procedure: (§1) These assays were conducted by DiscoverX (formerly Ambit; San Diego, Calif.). The percentage inhibition produced by incubation with a test compound is calculated relative to the non-inhibited control.

cSrc = cSrc (Homo sapiens, UniProt P12931); experiment: Enzyme binding assay (Kinomescan); details: read-out: % Inhibition of kinase binding at 500 nM, cSrc
cSrc, sequence (P12931 whole entry): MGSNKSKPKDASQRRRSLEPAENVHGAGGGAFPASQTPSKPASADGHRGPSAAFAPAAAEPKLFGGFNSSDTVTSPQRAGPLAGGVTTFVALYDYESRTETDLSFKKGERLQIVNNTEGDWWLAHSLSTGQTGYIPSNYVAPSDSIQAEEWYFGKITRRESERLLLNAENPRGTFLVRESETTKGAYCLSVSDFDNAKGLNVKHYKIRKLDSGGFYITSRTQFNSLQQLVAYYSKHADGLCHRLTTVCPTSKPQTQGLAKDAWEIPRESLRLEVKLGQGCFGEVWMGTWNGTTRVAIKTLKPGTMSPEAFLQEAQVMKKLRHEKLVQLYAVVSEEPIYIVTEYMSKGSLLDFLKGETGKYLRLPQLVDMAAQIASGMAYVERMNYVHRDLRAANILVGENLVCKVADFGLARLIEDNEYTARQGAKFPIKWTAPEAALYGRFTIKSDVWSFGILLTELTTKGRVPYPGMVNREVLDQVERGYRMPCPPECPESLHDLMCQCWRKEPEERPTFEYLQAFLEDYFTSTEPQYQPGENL
Procedure: as §1

p38 MAPKα = p38 MAPKα (Homo sapiens, UniProt Q16539); experiment: Enzyme binding assay (Kinomescan); details: read-out: % Inhibition of kinase binding at 500 nM, p38 MAPKα
p38 MAPKα, sequence (Q16539 whole entry): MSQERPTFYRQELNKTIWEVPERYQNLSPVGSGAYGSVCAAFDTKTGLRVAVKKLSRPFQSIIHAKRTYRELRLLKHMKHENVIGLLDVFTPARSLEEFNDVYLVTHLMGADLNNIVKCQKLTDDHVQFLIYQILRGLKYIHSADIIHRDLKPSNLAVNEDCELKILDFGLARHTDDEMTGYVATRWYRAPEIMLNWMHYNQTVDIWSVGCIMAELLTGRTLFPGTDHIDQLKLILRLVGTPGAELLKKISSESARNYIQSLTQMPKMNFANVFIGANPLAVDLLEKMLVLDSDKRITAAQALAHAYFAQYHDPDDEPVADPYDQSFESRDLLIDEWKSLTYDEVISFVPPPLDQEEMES
Procedure: (§2) Enzyme Binding Assays (Kinomescan)
(§3) The kinase enzyme binding activities of compounds disclosed herein were determined using a proprietary assay which measures active site-directed competition binding to an immobilized ligand (Fabian, M. A. et al., Nature Biotechnol., 2005, 23:329-336). These assays were conducted by DiscoverX (formerly Ambit; San Diego, Calif.). The percentage inhibition produced by incubation with a test compound is calculated relative to the non-inhibited control.

p38 MAPKγ = p38 MAPKγ (Homo sapiens, UniProt P53778); experiment: Enzyme binding assay (Kinomescan); details: read-out: % Inhibition of kinase binding at 500 nM, p38 MAPKγ
p38 MAPKγ, sequence (P53778 whole entry): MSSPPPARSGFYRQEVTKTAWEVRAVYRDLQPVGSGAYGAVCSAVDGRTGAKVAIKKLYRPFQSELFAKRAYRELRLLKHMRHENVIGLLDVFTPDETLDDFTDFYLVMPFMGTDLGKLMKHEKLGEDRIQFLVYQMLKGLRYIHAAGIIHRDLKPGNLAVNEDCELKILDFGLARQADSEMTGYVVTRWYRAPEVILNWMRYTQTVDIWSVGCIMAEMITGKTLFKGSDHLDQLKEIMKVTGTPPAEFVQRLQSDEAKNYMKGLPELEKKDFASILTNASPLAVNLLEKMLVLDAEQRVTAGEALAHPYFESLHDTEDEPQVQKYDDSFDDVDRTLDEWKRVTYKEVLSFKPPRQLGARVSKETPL
Procedure: as §2, §1

[1] = tested on: intestinal mucosa biopsies from the inflamed regions of the colon of IBD patients; experiment: Human biopsy assay (cytokine release from intestinal mucosa biopsies of IBD/UC patients); type: cell-based; details: in vitro
Procedure: Intestinal mucosa biopsies are obtained from the inflamed regions of the colon of IBD patients. The biopsy material is cut into small pieces (2-3 mm) and placed on steel grids in an organ culture chamber at 37° C. in a 5% CO2/95% O2 atmosphere in serum-free media. DMSO control or test compounds at the desired concentration are added to the tissue and incubated for 24 hr in the organ culture chamber. The supernatant is harvested for determination of IL-6, IL-8, IL-1β and TNFα levels by R&D ELISA.

CYP450 [2] = target: CYP450 (Homo sapiens, UniProt P08684); experiment: Time-dependent inhibition of cytochromes (CYP450 TDI); type: in vitro ADME; details: CYP3A4 (midazolam probe), human hepatic microsomes
CYP450 (Homo sapiens, UniProt P08684), sequence (P08684 whole entry): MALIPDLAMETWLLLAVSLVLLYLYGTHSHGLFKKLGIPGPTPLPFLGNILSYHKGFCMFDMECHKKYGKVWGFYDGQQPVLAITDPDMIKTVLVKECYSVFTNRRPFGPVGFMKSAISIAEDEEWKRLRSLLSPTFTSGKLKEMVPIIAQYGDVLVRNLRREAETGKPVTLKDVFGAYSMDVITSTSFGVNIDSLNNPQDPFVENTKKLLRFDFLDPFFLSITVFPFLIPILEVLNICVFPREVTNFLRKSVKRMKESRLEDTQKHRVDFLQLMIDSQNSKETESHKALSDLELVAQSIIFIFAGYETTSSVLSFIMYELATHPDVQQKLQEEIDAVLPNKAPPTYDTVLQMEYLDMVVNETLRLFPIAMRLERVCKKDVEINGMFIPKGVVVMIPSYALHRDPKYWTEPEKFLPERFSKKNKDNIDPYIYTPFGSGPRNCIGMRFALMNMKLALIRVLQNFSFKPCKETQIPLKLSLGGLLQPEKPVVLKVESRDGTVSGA
Procedure: (§4) (ii) Time-Dependent Inhibition of Cytochromes
(§5) CYP450 time-dependent inhibition (TDI) assays were performed with test compound at six test concentrations, 0.062 μM to 15 μM (n=2). The test compounds was pre-incubated for 30 minutes with pooled human hepatic microsomes in 0.1 M Tris buffer, pH 7.4, at 37° C. in the presence of cofactor NADPH. A parallel series of incubations (n=2) were prepared with no pre-incubation. Probe substrates were then added (with additional cofactor) and further incubated for the times specified. Concentrations of probe substrates used in the incubations have been optimised to maintain first order reaction conditions.
(§6) Reactions were terminated with acetonitrile containing analytical internal standard (carbamazepine), samples then centrifuged to remove microsomal protein and analysed using optimised LC/MS-MS conditions. The MS data were normalised to internal standard and compared to the appropriate solvent controls to determine the amount of metabolite formed from the probe substrate relative to the “uninhibited” controls. The results are quoted as % inhibition. These values were then plotted using the sigmoidal dose response equation (shown below) and IC50's calculated.
(§7) Y=bottom+((top-bottom)/1+10̂((Log IC50−X)*Hill slope)) • X=Log concentration • Y=response
(§8) Variation in probe turnover between plate wells means that inhibition values recorded below 10-15% may not be significant.

CYP3A4 = CYP3A4 (Homo sapiens, UniProt P08684); experiment: as above; type: in vitro ADME; details: human, pooled human liver microsomes, pH 7.4, probe midazolam, CYP3A4 (midazolam probe), 15 μM, human hepatic microsomes, read-out: 15 μM % Inh
CYP3A4, sequence (P08684 whole entry): as above
Procedure: as §4, §5, §6, §7, §8

CYP450 [3] = target: CYP450 (Homo sapiens, UniProt P11712); experiment: as above; type: in vitro ADME; details: CYP2C9 (diclofenac probe), human hepatic microsomes
CYP450 (Homo sapiens, UniProt P11712), sequence (P11712 whole entry): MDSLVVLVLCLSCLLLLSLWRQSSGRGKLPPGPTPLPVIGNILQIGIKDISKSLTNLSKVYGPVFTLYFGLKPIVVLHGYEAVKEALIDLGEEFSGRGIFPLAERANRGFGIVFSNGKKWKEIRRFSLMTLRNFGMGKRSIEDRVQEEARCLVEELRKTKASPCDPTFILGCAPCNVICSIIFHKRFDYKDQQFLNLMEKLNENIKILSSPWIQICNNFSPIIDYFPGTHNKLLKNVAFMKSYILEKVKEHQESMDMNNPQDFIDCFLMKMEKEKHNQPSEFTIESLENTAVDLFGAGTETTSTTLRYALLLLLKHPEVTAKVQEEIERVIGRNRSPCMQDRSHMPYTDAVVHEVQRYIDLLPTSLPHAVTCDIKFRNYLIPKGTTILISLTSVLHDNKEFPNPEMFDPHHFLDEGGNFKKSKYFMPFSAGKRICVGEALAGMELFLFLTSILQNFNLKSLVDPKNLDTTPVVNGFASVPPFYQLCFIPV
Procedure: as §4, §5, §6, §7, §8

CYP2C9 = CYP2C9 (Homo sapiens, UniProt P11712); experiment: as above; type: in vitro ADME; details: human, pooled human liver microsomes, pH 7.4, probe diclofenac, CYP2C9 (diclofenac probe), 15 μM, human hepatic microsomes, read-out: 15 μM % Inh
CYP2C9, sequence (P11712 whole entry): as above
Procedure: as §4, §5, §6, §7, §8

B-Raf (V600e) = B-Raf (V600e) (Homo sapiens, UniProt P15056, V600E); experiment: Enzyme binding assay (KINOMEscan)
B-Raf (V600e), sequence (P15056 whole entry V600E): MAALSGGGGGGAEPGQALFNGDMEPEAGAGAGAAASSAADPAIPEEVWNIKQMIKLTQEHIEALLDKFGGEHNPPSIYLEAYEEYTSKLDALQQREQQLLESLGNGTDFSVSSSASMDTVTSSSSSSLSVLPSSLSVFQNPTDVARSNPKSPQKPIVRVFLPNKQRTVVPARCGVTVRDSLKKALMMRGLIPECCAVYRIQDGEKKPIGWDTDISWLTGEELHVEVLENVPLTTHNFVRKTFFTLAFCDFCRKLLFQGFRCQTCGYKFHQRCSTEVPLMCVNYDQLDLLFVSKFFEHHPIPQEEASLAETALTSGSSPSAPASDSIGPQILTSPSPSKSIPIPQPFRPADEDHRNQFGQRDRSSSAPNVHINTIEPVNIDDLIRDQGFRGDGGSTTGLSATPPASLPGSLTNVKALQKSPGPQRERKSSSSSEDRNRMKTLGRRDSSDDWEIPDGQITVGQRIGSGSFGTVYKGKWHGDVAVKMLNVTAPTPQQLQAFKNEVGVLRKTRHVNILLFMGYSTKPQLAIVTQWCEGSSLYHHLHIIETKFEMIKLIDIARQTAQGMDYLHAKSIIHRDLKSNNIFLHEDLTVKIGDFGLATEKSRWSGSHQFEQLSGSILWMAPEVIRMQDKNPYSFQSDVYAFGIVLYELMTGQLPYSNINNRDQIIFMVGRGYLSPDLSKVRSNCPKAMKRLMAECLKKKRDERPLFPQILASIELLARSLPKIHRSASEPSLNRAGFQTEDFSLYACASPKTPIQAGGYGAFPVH
Procedure: as §3

[4] = tested on: 71 receptors and 26 enzymes; experiment: Diversity Profile (Cerep); type: binding; details: 300 nM
Procedure: Studies were conducted by Cerep (Celle-Lévescault, France) to investigate the binding of the compound of Example 77 to a diverse selection of receptors and to investigate either the inhibition or activation of a selection of enzymes (the “Diversity Profile” comprising a total of 71 receptors and 26 enzymes).

[5] = tested on: Salmonella typhimurium, strains TA98 and TA100; experiment: Mutagenicity assessment (bacterial reverse mutation screen); details: presence or absence of S-9 mix; up to 5000 μg/plate
Procedure: Mutagenicity Assessment (Bacterial Reverse Mutation Screen)
Studies were conducted by Sequani (Ledbury, Herefordshire, UK) to assess the compound of Example 77 in vitro for its ability to induce mutations in two histidine dependent auxotrophic mutants of Salmonella typhimurium, strains TA98 and TA100.
The mutation screen was conducted using the plate incorporation method and was performed in both the presence and absence of S-9 mix (a liver post-mitochondrial fraction derived from the livers of Aroclor 1254 treated rats). The bacteria were exposed to the compound of Example 77 dissolved in dimethylsulphoxide, which solvent was also used as the negative control. The dose levels used were 0.32, 1.6, 8, 40, 200, 1000 or 5000 μg/plate.

GSK3α, sequence (P49840 whole entry): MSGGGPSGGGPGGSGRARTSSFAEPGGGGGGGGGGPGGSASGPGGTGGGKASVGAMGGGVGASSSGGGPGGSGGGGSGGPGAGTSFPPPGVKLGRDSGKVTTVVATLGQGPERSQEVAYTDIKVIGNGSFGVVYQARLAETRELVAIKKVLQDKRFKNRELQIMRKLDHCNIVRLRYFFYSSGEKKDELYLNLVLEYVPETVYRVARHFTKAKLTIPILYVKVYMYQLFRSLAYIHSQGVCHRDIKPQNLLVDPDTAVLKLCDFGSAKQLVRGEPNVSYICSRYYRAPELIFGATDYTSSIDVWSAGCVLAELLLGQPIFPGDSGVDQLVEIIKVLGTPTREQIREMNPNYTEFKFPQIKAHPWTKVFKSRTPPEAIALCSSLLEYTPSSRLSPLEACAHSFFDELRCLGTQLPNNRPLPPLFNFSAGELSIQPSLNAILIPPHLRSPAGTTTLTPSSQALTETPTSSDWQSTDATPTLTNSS

SMILES | inhibition at 0.5 µM (GSK3α) [%] | inhibition at 0.5 µM (cSrc) [%] | inhibition at 0.5 µM (p38 MAPKα) [%] | inhibition at 0.5 µM (p38 MAPKγ) [%] | IL-1b, IL-6 and IL-8 release from biopsies of UC patients [1] | pIC50 (CYP450 [2]; 0 min preincubation) | pIC50 (CYP450 [2]; 30 min preincubation) | inhibition at 15 µM (CYP3A4; 0 min preincubation) [%] | inhibition at 15 µM (CYP3A4; 30 min preincubation) [%] | pIC50 (CYP450 [3]; 0 min preincubation) | pIC50 (CYP450 [3]; 30 min preincubation) | inhibition at 15 µM (CYP2C9; 0 min preincubation) [%] | inhibition at 15 µM (CYP2C9; 30 min preincubation) [%] | effect on the binding of the kinase B-Raf (V600e) to its standard ligand (B-Raf (V600e)) | inhibition of control specific binding in the receptor binding assays or enzyme assays [4] | revertant colonies (mutagenic effects) [5]
COc1cc(Nc2nccc(Oc3ccc(NC(=O)Nc4cc(C(C)C)nn4-c4ccc(C)cc4)c4ccccc34)n2)cc(C(=O)NCCN2CCOCC2)c1 [Example 8, 3-((4-((4-(3-(3-Isopropyl-1-(p-tolyl)-1H-pyrazol-5-yl)ureido)naphthalen-1-yl)oxy)pyrimidin-2-yl)amino)-5-methoxy-N-(2-morpholinoethyl)benzamide] | 19 | 100 | 95 | 82 |  |  |  |  |  |  |  |  |  |  |  | 
C#Cc1cc(Nc2nccc(Oc3ccc(NC(=O)Nc4cc(C(C)C)nn4-c4ccc(C)cc4)c4ccccc34)n2)cc(C(=O)NCCN2CCOCC2)c1 [Example 46, 3-ethynyl-5-((4-((4-(3-(3-isopropyl-1-(p-tolyl)-1H-pyrazol-5-yl)ureido)naphthalen-1-yl)oxy)pyrimidin-2-yl)amino)-N-(2-morpholinoethyl)benzamide] |  |  |  |  | markedly reduced |  |  |  |  |  |  |  |  |  |  | 
C#Cc1cc(Nc2nccc(Oc3ccc(NC(=O)Nc4cc(C(C)(C)C)nn4-c4ccc(OC)cc4)c4ccccc34)n2)cc(C(=O)NCCN2CCOCC2)c1 [Example 77, 3-((4-((4-(3-(3-(tert-Butyl)-1-(4-methoxyphenyl)-1H-pyrazol-5-yl)ureido)-naphthalen-1-yl)oxy)pyrimidin-2-yl)amino)-5-ethynyl-N-(2-morpholinoethyl)benzamide] |  |  |  |  | markedly reduced | < 4.82 | < 4.82 | 15 | 35 | < 4.82 | < 4.82 | -4 | 1 | did not have any effect on the binding | less than 25% | no dose-related or statistically significant increases in revertant colonies
